According to patent publication EP4745135A1 (Gluetacs Therapeutics (Shanghai) Co., Ltd., priority 2023, dated 2025):

How the values were obtained:
[1] = test system: Human myeloid monocytic leukemia cell (MV-4-11); assay: Tumor cell proliferation inhibition (CellTiter-Meiluncell luminescent cell viability assay); conditions: MV4-11, 96 h; for inhibition at 0.01 µM: read-out: Inhibition Rate at 10 nM (%); for inhibition at 0.5 µM: read-out: Inhibition Rate at 500 nM (%)
[2] = test system: Human multiple myeloma cell (MM.1S); assay: as above; conditions: Homo sapiens, MM1.S, 96 h; for inhibition at 0.01 µM: read-out: Inhibition Rate at 10 nM (%); for inhibition at 0.5 µM: read-out: Inhibition Rate at 500 nM (%)
Experimental: (§1) The tumor cells used herein were cultured in a cell culture medium listed in table 2 at 37°C in an incubator with 5% CO2. Prior to experimentation, all cell lines used were correctly identified by STR profiling, and tested negative for mycoplasma contamination using a mycoplasma detection kit through routine screenings.
(§2) The IC50 values of the compounds of the present disclosure (including the compounds in Table 1 and Examples) were determined using the CellTiter-Meiluncell Luminescent Cell Viability Assay Kit from Dalian Meilun Biotech Co., Ltd. The detailed procedure is as follows: Tumor cells were seeded in 96-well cell culture plates at the densities specified in Table 3. On the following day, the test compounds of the present disclosure were subjected to serial dilution. The dilution can be performed according to one of the following two methods: • (1) The first dilution method: The test compounds of the present disclosure (including the compounds in Table 1 and Examples) were subjected to 5-fold serial dilutions starting from a highest concentration of 2000 µM, resulting in a total of 9 concentrations from high to low (2000, 400, 80, 16, 3.2, 0.64, 0.128, 0.0256, 0.00512 µM). Subsequently, 0.5 µL of the test compound dilution was transferred into the 96-well plate containing the cells, with each well containing 100 µL of cell culture medium. […] Into the 96-well plate, the diluted test compounds and corresponding detection reagents were added, resulting in final test compound concentrations of 500 nM and 10 nM, respectively. The experimental procedure is described below using the diluted 2 µM test compound as an example.
(§3) 0.5 µL of the aforementioned diluted compound of the present disclosure (including the compounds in Table 1 and Examples) was added to the seeded cells in 100 µL of medium, yielding a final test compound concentration of 10 nM. After the cells were treated with the compounds of the present disclosure for a specified period, the cell viability assay reagent was added to the culture medium according to the kit's instructions to determine cell viability. […] All controls were treated using the same procedure as the compounds of the present disclosure. The growth inhibition curves for the compounds of the present disclosure were plotted using Prism GraphPad software, and the IC50 values were calculated therefrom.

[3] = test system: Human T cell acute lymphoblastic leukemia cell (CCRF-CEM); assay: as above; conditions: 96 h; for inhibition at 0.01 µM: read-out: Inhibition Rate at 10 nM (%); for inhibition at 0.5 µM: read-out: Inhibition Rate at 500 nM (%)
GSPT1 = assay: Western blot, degradation of substrate protein in hPBMCs; assay type: cell-based, Human
CK1α = molecular target: T1, CK1α (Homo sapiens, UniProt P48729+Q96SW2); assay: as above; assay type: cell-based
T1 construct: effects of the compounds of the present disclosure on the expression of target proteins in cells; endogenous in cells; host or cells: human PBMCs (Milecell Biotechnologies)

IKZF1 = molecular target: T2, IKZF1 (Homo sapiens, UniProt Q13422+Q96SW2); assay: as above; assay type: cell-based
T2 construct: effects of the compounds of the present disclosure on the expression of target proteins in cells; endogenous in cells; host or cells: human PBMCs (Milecell Biotechnologies)

IKZF3 = molecular target: T3, IKZF3 (Homo sapiens, UniProt Q96SW2+Q9UKT9); assay: as above; assay type: cell-based
T3 construct: effects of the compounds of the present disclosure on the expression of target proteins in cells; endogenous in cells; host or cells: human PBMCs (Milecell Biotechnologies)

WEE1 = molecular target: T4, WEE1 (Homo sapiens, UniProt P30291+Q96SW2); assay: as above; assay type: cell-based
T4 construct: effects of the compounds of the present disclosure on the expression of target proteins in cells; endogenous in cells; host or cells: human PBMCs (Milecell Biotechnologies)

IKZF2 = molecular target: T5, IKZF2 (Homo sapiens, UniProt Q96SW2+Q9UKS7); assay: as above; assay type: cell-based
T5 construct: effects of the compounds of the present disclosure on the expression of target proteins in cells; endogenous in cells; host or cells: human PBMCs (Milecell Biotechnologies)

[4] = test system: Human acute myeloid leukemia cell line: Kasumi-1; assay: Tumor cell proliferation inhibition (CellTiter-Meiluncell luminescent cell viability assay); conditions: Kasumi 1, 96 h; for inhibition at 0.01 µM: read-out: Inhibition Rate at 10 nM (%); for inhibition at 0.5 µM: read-out: Inhibition Rate at 500 nM (%)
Experimental: as §1, §2, §3

[5] = test system: Human T lymphocytic leukemia cell line: Jurkat; assay: as above; conditions: 96 h; for inhibition at 0.01 µM: read-out: Inhibition Rate at 10 nM (%); for inhibition at 0.5 µM: read-out: Inhibition Rate at 500 nM (%)
Experimental: as §1, §2, §3

[6] = molecular target: T6, human Cereblon WT GST-tagged protein (Homo sapiens, UniProt Q96SW2); assay: CRBN-binding affinity, HTRF (CEREBLON BINDING kit); conditions: for inhibition at 0.5 µM: read-out: Inhibition Rate at 0.5 µM (%); for inhibition at 2 µM: read-out: Inhibition Rate at 2 µM (%)
T6 construct: purchased CISBIO 64BDCRBNPEH

[7] = test system: Human acute T lymphocytic leukemia cell (Molt4); assay: Tumor cell proliferation inhibition (CellTiter-Meiluncell luminescent cell viability assay); conditions: MOLT-4, 96 h; for inhibition at 0.01 µM: read-out: Inhibition Rate at 10 nM (%); for inhibition at 0.5 µM: read-out: Inhibition Rate at 500 nM (%)
[8] = test system: Human multiple myeloma peripheral blood B lymphocyte cell (RPMI-8226); assay: as above; conditions: RPMI-8226, 96 h
[9] = 24 hours treatment, compounds at 50 nM and 500 nM (concentration behind the class not stated)
[10] = Western blot, 24 hours of compound treatment, compounds tested at 50 nM and 500 nM (concentration for the table not stated)

T1 sequence (P48729 whole entry): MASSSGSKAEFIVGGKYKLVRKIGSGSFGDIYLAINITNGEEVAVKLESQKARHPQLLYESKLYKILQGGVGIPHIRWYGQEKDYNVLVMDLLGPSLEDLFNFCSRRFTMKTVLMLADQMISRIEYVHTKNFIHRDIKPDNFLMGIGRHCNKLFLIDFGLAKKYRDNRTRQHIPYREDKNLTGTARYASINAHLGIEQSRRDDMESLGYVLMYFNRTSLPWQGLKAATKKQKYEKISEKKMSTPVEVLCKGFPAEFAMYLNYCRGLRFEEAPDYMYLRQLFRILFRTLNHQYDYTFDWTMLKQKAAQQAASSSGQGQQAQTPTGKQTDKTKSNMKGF
T1 sequence (Q96SW2 whole entry): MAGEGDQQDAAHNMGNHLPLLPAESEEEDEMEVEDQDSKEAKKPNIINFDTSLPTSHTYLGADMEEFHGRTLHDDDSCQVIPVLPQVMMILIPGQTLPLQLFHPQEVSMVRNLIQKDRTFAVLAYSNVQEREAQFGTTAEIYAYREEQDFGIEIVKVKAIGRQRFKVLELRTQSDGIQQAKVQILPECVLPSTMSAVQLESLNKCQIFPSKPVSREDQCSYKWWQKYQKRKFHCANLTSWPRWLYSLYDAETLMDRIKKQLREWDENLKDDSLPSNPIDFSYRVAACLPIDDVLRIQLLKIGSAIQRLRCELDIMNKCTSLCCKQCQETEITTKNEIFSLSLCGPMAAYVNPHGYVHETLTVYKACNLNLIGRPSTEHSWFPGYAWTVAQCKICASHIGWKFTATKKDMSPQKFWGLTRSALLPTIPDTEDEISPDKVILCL
T1 sequence (Q16531 whole entry partner): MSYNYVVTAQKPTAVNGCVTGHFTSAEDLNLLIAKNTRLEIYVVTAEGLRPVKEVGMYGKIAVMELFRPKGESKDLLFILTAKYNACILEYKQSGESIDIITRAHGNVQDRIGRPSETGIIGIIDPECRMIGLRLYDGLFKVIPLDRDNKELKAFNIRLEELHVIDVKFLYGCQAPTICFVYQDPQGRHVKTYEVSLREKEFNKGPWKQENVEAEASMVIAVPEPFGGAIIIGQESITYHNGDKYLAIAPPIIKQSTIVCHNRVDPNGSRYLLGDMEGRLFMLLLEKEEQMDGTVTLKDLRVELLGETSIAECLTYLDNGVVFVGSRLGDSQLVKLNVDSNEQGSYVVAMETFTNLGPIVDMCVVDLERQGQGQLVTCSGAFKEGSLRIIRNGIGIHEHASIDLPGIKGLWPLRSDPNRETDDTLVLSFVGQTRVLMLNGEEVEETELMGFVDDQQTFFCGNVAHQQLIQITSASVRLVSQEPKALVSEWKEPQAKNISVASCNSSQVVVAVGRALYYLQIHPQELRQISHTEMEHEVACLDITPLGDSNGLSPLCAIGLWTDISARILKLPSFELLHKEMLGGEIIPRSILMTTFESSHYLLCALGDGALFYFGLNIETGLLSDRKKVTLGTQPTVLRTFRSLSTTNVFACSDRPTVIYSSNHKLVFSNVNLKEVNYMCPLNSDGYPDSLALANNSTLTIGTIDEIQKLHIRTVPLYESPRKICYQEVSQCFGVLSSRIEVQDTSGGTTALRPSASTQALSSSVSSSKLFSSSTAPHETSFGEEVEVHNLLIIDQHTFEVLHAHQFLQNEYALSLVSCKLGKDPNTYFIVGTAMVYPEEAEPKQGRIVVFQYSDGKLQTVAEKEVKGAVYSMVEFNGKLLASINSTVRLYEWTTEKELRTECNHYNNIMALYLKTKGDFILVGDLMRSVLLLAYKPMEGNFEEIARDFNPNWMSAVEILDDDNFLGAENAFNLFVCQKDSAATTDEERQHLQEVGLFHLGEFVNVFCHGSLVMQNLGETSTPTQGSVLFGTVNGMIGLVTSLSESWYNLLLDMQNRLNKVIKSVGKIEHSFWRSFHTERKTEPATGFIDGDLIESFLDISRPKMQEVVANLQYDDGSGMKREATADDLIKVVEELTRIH
T2 sequence (Q13422 whole entry): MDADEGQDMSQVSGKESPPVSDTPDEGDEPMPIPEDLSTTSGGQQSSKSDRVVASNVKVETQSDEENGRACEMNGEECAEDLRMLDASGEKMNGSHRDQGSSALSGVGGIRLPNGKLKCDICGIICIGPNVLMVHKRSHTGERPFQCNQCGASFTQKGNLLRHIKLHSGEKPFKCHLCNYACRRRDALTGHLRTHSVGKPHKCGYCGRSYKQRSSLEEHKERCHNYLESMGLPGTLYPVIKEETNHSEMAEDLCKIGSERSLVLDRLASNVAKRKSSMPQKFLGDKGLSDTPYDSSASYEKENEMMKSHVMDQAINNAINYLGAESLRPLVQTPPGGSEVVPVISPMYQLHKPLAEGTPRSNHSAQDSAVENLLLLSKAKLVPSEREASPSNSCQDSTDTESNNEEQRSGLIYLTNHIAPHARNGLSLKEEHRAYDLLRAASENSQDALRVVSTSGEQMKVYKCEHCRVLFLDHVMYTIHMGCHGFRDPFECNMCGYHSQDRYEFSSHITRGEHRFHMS
T2 sequence (Q96SW2 whole entry): as the sequence (Q96SW2 whole entry) above
T2 sequence (Q16531 whole entry partner): as the sequence (Q16531 whole entry partner) above
T6 sequence (Q96SW2 whole entry): as the sequence (Q96SW2 whole entry) above
T4 sequence (P30291 whole entry): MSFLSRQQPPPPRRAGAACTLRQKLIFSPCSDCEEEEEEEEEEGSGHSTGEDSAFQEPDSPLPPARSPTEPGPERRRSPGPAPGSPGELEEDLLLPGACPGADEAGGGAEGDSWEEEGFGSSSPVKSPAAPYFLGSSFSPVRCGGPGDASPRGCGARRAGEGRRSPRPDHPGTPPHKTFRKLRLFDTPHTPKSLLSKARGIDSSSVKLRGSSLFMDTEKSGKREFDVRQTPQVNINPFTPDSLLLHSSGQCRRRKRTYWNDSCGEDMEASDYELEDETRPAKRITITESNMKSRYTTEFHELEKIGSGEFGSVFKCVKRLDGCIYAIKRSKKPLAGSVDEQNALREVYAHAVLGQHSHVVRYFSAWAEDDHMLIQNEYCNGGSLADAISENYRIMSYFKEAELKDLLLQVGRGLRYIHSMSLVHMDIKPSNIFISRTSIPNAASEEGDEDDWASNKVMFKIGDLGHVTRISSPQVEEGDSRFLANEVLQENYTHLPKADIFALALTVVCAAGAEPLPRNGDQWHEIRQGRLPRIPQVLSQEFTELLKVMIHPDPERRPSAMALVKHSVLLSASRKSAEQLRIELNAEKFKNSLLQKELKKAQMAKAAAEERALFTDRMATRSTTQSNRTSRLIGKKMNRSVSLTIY
T4 sequence (Q96SW2 whole entry): as the sequence (Q96SW2 whole entry) above
T4 sequence (Q16531 whole entry partner): as the sequence (Q16531 whole entry partner) above
T5 sequence (Q9UKS7 whole entry): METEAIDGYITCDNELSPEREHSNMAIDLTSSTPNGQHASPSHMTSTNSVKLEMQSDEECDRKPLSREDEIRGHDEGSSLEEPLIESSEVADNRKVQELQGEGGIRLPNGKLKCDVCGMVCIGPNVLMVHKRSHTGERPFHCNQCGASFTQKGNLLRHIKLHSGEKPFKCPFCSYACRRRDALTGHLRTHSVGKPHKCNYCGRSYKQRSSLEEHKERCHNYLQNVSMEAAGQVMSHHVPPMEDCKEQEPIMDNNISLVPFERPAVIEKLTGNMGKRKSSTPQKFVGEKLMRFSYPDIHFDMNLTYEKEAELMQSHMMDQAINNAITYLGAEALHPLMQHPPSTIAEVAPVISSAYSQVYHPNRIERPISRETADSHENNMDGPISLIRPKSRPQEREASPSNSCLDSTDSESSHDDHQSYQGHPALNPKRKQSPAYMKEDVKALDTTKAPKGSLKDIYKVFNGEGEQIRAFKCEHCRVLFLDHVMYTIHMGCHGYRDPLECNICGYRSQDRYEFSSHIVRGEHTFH
T5 sequence (Q96SW2 whole entry): as the sequence (Q96SW2 whole entry) above
T5 sequence (Q16531 whole entry partner): as the sequence (Q16531 whole entry partner) above
T3 sequence (Q9UKT9 whole entry): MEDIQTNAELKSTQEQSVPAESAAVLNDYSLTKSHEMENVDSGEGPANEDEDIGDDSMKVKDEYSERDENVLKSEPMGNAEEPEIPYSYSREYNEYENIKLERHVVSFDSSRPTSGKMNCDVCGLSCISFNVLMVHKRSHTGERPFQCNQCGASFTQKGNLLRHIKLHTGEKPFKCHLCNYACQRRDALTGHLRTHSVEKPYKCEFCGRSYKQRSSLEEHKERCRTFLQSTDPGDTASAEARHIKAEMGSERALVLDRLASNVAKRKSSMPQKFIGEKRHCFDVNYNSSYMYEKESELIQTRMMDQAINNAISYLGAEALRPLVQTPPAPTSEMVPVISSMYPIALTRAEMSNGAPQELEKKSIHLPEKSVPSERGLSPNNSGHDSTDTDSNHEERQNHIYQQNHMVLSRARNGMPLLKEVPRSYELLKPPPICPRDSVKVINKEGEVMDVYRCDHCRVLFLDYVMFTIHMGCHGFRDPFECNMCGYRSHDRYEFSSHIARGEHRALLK
T3 sequence (Q96SW2 whole entry): as the sequence (Q96SW2 whole entry) above
T3 sequence (Q16531 whole entry partner): as the sequence (Q16531 whole entry partner) above

Row | Compound | inhibition at 0.01 µM [1] [%] | inhibition at 0.5 µM [1] [%] | inhibition at 0.01 µM [2] [%] | inhibition at 0.5 µM [2] [%] | inhibition at 0.01 µM [3] [%] | inhibition at 0.5 µM [3] [%] | inhibition at 0.01 µM [4] [%] | inhibition at 0.5 µM [4] [%] | inhibition at 0.01 µM [5] [%] | inhibition at 0.5 µM [5] [%] | inhibition at 0.5 µM [6] [%] | inhibition at 2 µM [6] [%] | inhibition at 0.01 µM [7] [%] | inhibition at 0.5 µM [7] [%] | GSPT1 substrate protein remaining % (GSPT1; [10]) | CK1α substrate protein remaining % (CK1α; [10]) | IKZF 1 substrate protein remaining % (IKZF1; [10]) | IKZF3 substrate protein remaining % (IKZF3; [10]) | Wee1 substrate protein remaining % (WEE1; [10]) | IKZF2 substrate protein remaining % (IKZF2; [10]) | also measured
1 | O=C1CCC(N2Cc3cc(CN4CC=C(c5ccoc5)CC4)ccc3C2=S)C(=O)N1 (centres unmarked) [GT-08328, 3-(5-((4-(furan-3-yl)-3,6-dihydropyridin-1(2H)-yl)methyl)-1-thioxoisoindolin-2-yl)piperidine-2,6-dione] | 40 to 60 | 80 to 100 | 50 to 60 | 80 to 100 | 10 to 20 | 80 to 100 | 5 to 10 | 60 to 70 | 0 to 5 | 40 to 50 | 60 to 80 | 80 to 100 | 10 to 20 | 80 to 100 |  |  |  |  |  |  | GSPT1 substrate protein remaining % (GSPT1; [9]): A (0% ≤ substrate protein remaining % ≤ 80%); CK1α substrate protein remaining % (CK1α; [9]): A (0% ≤ substrate protein remaining % ≤ 80%); IKZF 1 substrate protein remaining % (IKZF1; [9]): B (80%< substrate protein remaining %≤ 100%); IKZF3 substrate protein remaining % (IKZF3; [9]): B (80%< substrate protein remaining %≤ 100%); Wee1 substrate protein remaining % (WEE1; [9]): A (0% ≤ substrate protein remaining % ≤ 80%); IKZF2 substrate protein remaining % (IKZF2; [9]): B (80%< substrate protein remaining %≤ 100%)
2 | O=C1CCC(N2Cc3c(CN4CCN(c5cccc(F)c5)CC4)cccc3C2=S)C(=O)N1 (centres unmarked) [GT-08263, 3-(4-((4-(3-fluorophenyl)piperazin-1-yl)methyl)-1-thioxoisoindolin-2-yl)piperidine-2,6-dione] | 60 to 80 | 80 to 100 |  |  |  |  | 50 to 60 | 60 to 70 | 20 to 30 | 30 to 40 | 53 to 60 | 80 to 100 |  |  | A (0% ≤ substrate protein remaining % ≤ 80%) | A (0% ≤ substrate protein remaining % ≤ 80%) | B (80%< substrate protein remaining %≤ 100%) | B (80%< substrate protein remaining %≤ 100%) | A (0% ≤ substrate protein remaining % ≤ 80%) | B (80%< substrate protein remaining %≤ 100%) | 
3 | O=C1CCC(N2Cc3cc(CN4CCN(c5cccc(F)c5F)CC4)ccc3C2=S)C(=O)N1 (centres unmarked) [GT-08210, 3-(5-((4-(2,3-difluorophenyl)piperazin-1-yl)methyl)-1-thioxoisoindolin-2-yl)piperidine-2,6-dione] | 5 to 10 | 80 to 100 | 20 to 30 | 80 to 100 |  |  | 20 to 30 | 80 to 100 | 20 to 30 | 60 to 70 | 60 to 80 | 80 to 100 | 10 to 20 | 80 to 100 | A (0% ≤ substrate protein remaining % ≤ 80%) | B (80%< substrate protein remaining %≤ 100%) | A (0% ≤ substrate protein remaining % ≤ 80%) | A (0% ≤ substrate protein remaining % ≤ 80%) | A (0% ≤ substrate protein remaining % ≤ 80%) | A (0% ≤ substrate protein remaining % ≤ 80%) | 
4 | O=C1CCC(N2Cc3cc(CN4CCC(c5ccsc5)CC4)ccc3C2=S)C(=O)N1 (centres unmarked) [GT-08324, 3-(5-((4-(thiophen-3-yl)piperidin-1-yl)methyl)-1-thioxoisoindolin-2-yl)piperidine-2,6-dione] | 30 to 40 | 80 to 100 | 20 to 30 | 80 to 100 | 5 to 10 | 80 to 100 | 0 to 5 | 60 to 70 | -5 to 0 | 40 to 50 | 60 to 80 | 80 to 100 | 10 to 20 | 80 to 100 |  |  |  |  |  |  | GSPT1 substrate protein remaining % (GSPT1; [9]): A (0% ≤ substrate protein remaining % ≤ 80%); CK1α substrate protein remaining % (CK1α; [9]): A (0% ≤ substrate protein remaining % ≤ 80%); IKZF 1 substrate protein remaining % (IKZF1; [9]): A (0% ≤ substrate protein remaining % ≤ 80%); IKZF3 substrate protein remaining % (IKZF3; [9]): B (80%< substrate protein remaining %≤ 100%); Wee1 substrate protein remaining % (WEE1; [9]): A (0% ≤ substrate protein remaining % ≤ 80%); IKZF2 substrate protein remaining % (IKZF2; [9]): A (0% ≤ substrate protein remaining % ≤ 80%)
5 | Cc1ccc(Sc2ccccc2N2CCN(Cc3cccc4c3CN(C3CCC(=O)NC3=O)C4=S)CC2)c(C)c1 (centres unmarked) [GT-08332, 3-(4-((4-(2-((2,4-dimethylphenyl)thio)phenyl)piperazin-1-yl)methyl)-1-thioxoisoindolin-2-yl)piperidine-2,6-dione] | -5 to 0 | 60 to 80 | 10 to 20 | 80 to 100 | -5 to 0 | 80 to 100 | -5 to 0 | 80 to 100 | 0 to 5 | 80 to 100 |  |  | -5 to 0 | 80 to 100 |  |  |  |  |  |  | GSPT1 substrate protein remaining % (GSPT1; [9]): A (0% ≤ substrate protein remaining % ≤ 80%); CK1α substrate protein remaining % (CK1α; [9]): A (0% ≤ substrate protein remaining % ≤ 80%); IKZF 1 substrate protein remaining % (IKZF1; [9]): A (0% ≤ substrate protein remaining % ≤ 80%); IKZF3 substrate protein remaining % (IKZF3; [9]): B (80%< substrate protein remaining %≤ 100%); Wee1 substrate protein remaining % (WEE1; [9]): A (0% ≤ substrate protein remaining % ≤ 80%); IKZF2 substrate protein remaining % (IKZF2; [9]): A (0% ≤ substrate protein remaining % ≤ 80%)
6 | COc1ccccc1N1CCN(Cc2cccc3c2CN(C2CCC(=O)NC2=O)C3=S)CC1 (centres unmarked) [GT-08260, 3-(4-((4-(2-methoxyphenyl)piperazin-1-yl)methyl)-1-thioxoisoindolin-2-yl)piperidine-2,6-dione] |  |  |  |  | 20 to 30 | 40 to 50 |  |  |  |  | 60 to 80 | 80 to 100 |  |  | A (0% ≤ substrate protein remaining % ≤ 80%) | B (80%< substrate protein remaining %≤ 100%) | B (80%< substrate protein remaining %≤ 100%) | B (80%< substrate protein remaining %≤ 100%) | A (0% ≤ substrate protein remaining % ≤ 80%) | B (80%< substrate protein remaining %≤ 100%) | inhibition at 0.01 µM ([8]; read-out: Inhibition Rate at 10 nM (%)): 70 to 80%; inhibition at 0.5 µM ([8]; read-out: Inhibition Rate at 500 nM (%)): 70 to 80%
7 | CC1(C)CCC(CN2CC3CCC(C2)N3Cc2cccc3c2CN(C2CCC(=O)NC2=O)C3=S)=C(c2ccc(Cl)cc2)C1 (centres unmarked) [GT-08292, 3-(4-((3-((4'-chloro-5,5-dimethyl-3,4,5,6-tetrahydro-[1,1'-biphenyl]-2-yl)methyl)-3,8-diazabicyclo[3.2.1]octan-8-yl)methyl)-1-thioxoisoindolin-2-yl)piperidine-2,6-dione] | 60 to 80 | 60 to 80 |  |  |  |  | 60 to 70 | 50 to 60 | 30 to 40 | 30 to 40 | 30 to 40 | 60 to 80 |  |  | A (0% ≤ substrate protein remaining % ≤ 80%) | A (0% ≤ substrate protein remaining % ≤ 80%) | B (80%< substrate protein remaining %≤ 100%) | B (80%< substrate protein remaining %≤ 100%) | A (0% ≤ substrate protein remaining % ≤ 80%) | B (80%< substrate protein remaining %≤ 100%) | 
